SMILES strings stand for the structures. Counter-ions that a name gives are not always drawn. Like-named read-outs stand apart in the source and are kept apart here.

The target of one experiment is T1, PDK1 (Homo sapiens, UniProt O15530).
T1 construct: 3-phosphoinositide-dependent protein kinase-1 [52-556]; His6; made in house; host or cells: insect Sf21 cells
T1 sequence (O15530 52-556): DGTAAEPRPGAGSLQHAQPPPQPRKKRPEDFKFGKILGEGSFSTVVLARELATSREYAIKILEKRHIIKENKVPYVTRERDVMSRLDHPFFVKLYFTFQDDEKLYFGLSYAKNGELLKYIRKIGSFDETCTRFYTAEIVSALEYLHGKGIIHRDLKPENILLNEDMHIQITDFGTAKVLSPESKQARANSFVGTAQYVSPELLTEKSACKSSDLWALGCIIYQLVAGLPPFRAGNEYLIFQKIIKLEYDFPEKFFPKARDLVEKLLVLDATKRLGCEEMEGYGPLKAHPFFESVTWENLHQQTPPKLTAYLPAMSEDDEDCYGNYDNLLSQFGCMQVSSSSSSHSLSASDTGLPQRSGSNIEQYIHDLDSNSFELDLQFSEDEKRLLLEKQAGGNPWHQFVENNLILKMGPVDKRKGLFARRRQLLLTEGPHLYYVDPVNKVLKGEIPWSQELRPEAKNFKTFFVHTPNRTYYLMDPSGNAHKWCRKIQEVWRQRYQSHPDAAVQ
Kind of experiment: PDK1 protein kinase assay. The experiment is classed as biochemical. The following applies: for remaining activity at 1 µM: 1 μM compound; for remaining activity at 10 µM: 10 μM compound; for residual kinase activity PDK1: 1 μm compound. An excerpt:
(§1) All protein kinases were of human origin and encoded full length proteins, unless indicated otherwise. They were either expressed as glutathione S-transferase (GST) fusion proteins in Escherichia Coli or as hexahistidine (His6)-tagged proteins in insect Sf21 cells. GST fusion proteins were purified by affinity chromatography on glutathione-Sepharose, and His6-tagged proteins on nickel/nitriloacetate-agarose. The procedures for expressing some of the protein kinases used herein have been detailed previously.^8,9 The following sections outline the DNA vectors synthesised and the procedures used to express and purifying protein kinases that have not been reported previously.
The following kinases were expressed in Sf21 cells: Aurora B and Aurora C, extra-cellular signal-regulated kinase 8 (ERK8), microtubule affinity regulating kinase 3 (MARK3), protein kinase Bα[118-480][S473D], protein kinase Bβ (PKBβ[120-481][S474D], 3-phosphoinositide-dependent protein kinase-1 [52-556]
(§2) All assays (25.5 μl) were carried out at room temperature (21° C.) and were linear with respect to time and enzyme concentration under the conditions used. Assays were performed for 30 min using Multidrop Micro reagent dispensers (Thermo Electron Corporation, Waltham, Mass. 02454, USA) in a 96-well format. The concentration of magnesium acetate in the assays was 10 mM and the [γ-33P] ATP (800 cpm/pmol) was used at 5, 20 or 50 μM as indicated, in order to be at or below the Km for ATP for each enzyme. Protein kinases assayed at 5 μM ATP were: —ERK1, ERK8, PKBα, MARK3, Aurora C. Protein kinases assayed at 20 μM ATP were: —JNK1, PDK1, CHK1, CHK2, CDK2 and Aurora B. Protein kinases assayed at 50 μM ATP were: —MNK2, IKKepsilon and TBK1.
(§3) The assays were initiated with MgATP, stopped by addition of 5 μl of 0.5 M orthophosphoric acid and spotted on to P81 filterplates using a unifilter harvester (PerkinElmer, Boston, Mass. 02118, USA). The IC50 values of inhibitors were determined after carrying out assays at 10 different concentrations of each compound.
(§4) Unless stated otherwise, enzymes were diluted in 50 mM Tris/HCl pH 7.5, 0.1 mM EGTA, 1 mg/ml BSA, 0.1% (v/v) 2-mercaptoethanol and assayed in 50 mM Tris/HCl pH 7.5, 0.1 mM EGTA, 0.1% (v/v) 2-mercaptoethanol.

Another experiment addresses T2, DYRK2 (Homo sapiens, UniProt Q92630).
T2 construct: All protein kinases were of human origin and encoded full length proteins, unless indicated otherwise; made in house
T2 sequence (Q92630 1-601): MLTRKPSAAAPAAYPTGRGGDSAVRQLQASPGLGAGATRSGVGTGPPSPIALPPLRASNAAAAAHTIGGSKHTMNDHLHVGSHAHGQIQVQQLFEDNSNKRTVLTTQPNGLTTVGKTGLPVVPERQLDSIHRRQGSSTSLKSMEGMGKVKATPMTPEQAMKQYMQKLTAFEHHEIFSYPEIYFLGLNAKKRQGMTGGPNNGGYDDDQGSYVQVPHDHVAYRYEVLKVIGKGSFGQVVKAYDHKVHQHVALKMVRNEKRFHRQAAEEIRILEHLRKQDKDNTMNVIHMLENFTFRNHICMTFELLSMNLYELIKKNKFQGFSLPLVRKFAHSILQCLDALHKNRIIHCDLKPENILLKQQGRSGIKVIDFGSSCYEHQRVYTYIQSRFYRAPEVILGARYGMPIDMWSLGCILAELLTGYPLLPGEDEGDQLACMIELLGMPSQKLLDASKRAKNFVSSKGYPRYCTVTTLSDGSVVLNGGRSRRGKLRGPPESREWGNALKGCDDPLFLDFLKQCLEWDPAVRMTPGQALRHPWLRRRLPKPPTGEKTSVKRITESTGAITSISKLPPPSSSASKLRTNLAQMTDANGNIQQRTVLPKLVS
Kind of experiment: DYRK2 protein kinase assay. The class given is biochemical. Conditions: for remaining activity at 1 µM: 1 μM compound; for remaining activity at 10 µM: 10 μM compound; for residual kinase activity DYRK2: 1 μm compound.
From the text: as §1, §2, §3, §4

In another experiment the target is T3, FGF-R1 (Homo sapiens, UniProt P11362).
T3 construct: All protein kinases were of human origin and encoded full length proteins, unless indicated otherwise; made in house
T3 sequence (P11362 400-820 limits assumed): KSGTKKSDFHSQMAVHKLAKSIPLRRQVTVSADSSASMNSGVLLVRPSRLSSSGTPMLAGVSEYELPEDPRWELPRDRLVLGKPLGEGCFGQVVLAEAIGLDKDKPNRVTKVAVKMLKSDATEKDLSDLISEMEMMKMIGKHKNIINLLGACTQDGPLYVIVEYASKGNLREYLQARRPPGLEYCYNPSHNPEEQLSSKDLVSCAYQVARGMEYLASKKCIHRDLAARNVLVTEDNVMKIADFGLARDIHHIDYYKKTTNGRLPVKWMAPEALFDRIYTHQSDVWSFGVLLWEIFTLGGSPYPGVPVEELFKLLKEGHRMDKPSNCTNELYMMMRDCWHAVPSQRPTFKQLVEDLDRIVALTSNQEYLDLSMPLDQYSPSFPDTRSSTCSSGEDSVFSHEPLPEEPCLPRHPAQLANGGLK
Kind of experiment: FGF-R1 protein kinase assay. The class given is biochemical. The following applies: for remaining activity at 1 µM: 1 μM compound; for remaining activity at 10 µM: 10 μM compound; for residual kinase activity FGF-R1: 1 μm compound.
From the text: as §1, §2, §3, §4

The target of the next experiment is T4, EPH A2 (Homo sapiens, UniProt P29317).
T4 construct: All protein kinases were of human origin and encoded full length proteins, unless indicated otherwise; made in house
T4 sequence (P29317 591-976 limits assumed): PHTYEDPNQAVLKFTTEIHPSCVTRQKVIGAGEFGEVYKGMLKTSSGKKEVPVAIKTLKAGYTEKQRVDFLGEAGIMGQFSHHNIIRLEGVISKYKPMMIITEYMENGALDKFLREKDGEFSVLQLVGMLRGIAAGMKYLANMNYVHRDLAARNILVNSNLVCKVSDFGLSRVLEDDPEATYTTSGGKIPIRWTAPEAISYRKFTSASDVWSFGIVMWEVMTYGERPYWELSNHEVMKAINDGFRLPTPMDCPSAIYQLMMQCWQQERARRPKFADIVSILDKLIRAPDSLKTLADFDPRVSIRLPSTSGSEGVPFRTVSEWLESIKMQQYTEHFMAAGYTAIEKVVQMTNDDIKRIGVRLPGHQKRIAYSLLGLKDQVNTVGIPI
As to the kind of experiment: EPH A2 protein kinase assay. The experiment is classed as biochemical. The following applies: for remaining activity at 1 µM: 1 μM compound; for remaining activity at 10 µM: 10 μM compound; for residual kinase activity EPH A2: 1 μm compound.
From the text: as §1, §2, §3, §4

The test system of another experiment is IR-HIS. As to the kind of experiment: IR-HIS protein kinase assay. The class given is biochemical, human. Conditions: for residual kinase activity: IR-HIS.
From the text: as §1, §2, §3, §4

[1] abbreviates: PDK1, 20 μM ATP, read-out: residual kinase activity.
The mark [2] stands for this setting: DYRK2, read-out: residual kinase activity.
Setting [3] is: FGF-R1, read-out: residual kinase activity.
Setting [4] is: EPH A2, read-out: residual kinase activity.
Setting [5] is: read-out: residual kinase activity PDK1.
The mark [6] stands for this setting: read-out: residual kinase activity DYRK2.
The mark [7] stands for this setting: read-out: residual kinase activity FGF-R1.
Setting [8] is: read-out: residual kinase activity EPH A2.

With `O=C(NCCCNc1nc(Nc2cccnc2)ncc1C1CC1)c1cccs1` [Example 50, Thiophene-2-carboxylic acid {3-[5-cyclopropyl-2-(pyridin-3-ylamino)-pyrimidin-4-ylamino]-propyl}-amide], the remaining activity at 1 µM at PDK1 (setting [1]) turned out to be 22%; at DYRK2 (setting [2]), 76%; on FGF-R1 (setting [3]), 77%; on EPH A2 (setting [4]), 88%. For the same molecule, the remaining activity at 10 µM on PDK1 (setting [1]) is 4%; at DYRK2 (setting [2]) it was 38%; at FGF-R1 (setting [3]), 31%; on EPH A2 (setting [4]) it was 73%. The residual kinase activity in the experiment on IR-HIS (1 μM compound) and with IR-HIS (10 μM compound) was 109% each time.

Take `O=C(NCCCNc1nc(Nc2cccc(F)c2)ncc1Br)C1CCC1` [Compound A, cyclobutanecarboxylic acid {3-[5-bromo-2-(3-fluoro-phenylamino)-pyrimidin-4-ylamino]-propyl}-amide, reference compound]: the remaining activity at 10 µM turned out to be 1% at PDK1 (setting [5]), 6% on DYRK2 (setting [6]), 1% at FGF-R1 (setting [7]) and 60% at EPH A2 (setting [8]). For the same molecule, at PDK1, the “residual kinase activity PDK1” value was 6%. For the same molecule, the “residual kinase activity DYRK2” value at DYRK2 was 36%. Moreover, the “residual kinase activity FGF-R1” value on FGF-R1 is reported as 17%. The “residual kinase activity EPH A2” value at EPH A2 was found to be 87%. Also, the “residual kinase activity IR-HIS” value in the experiment with IR-HIS (10 μM compound) came out at 69%; in the experiment with IR-HIS (1 μm compound) it was 91%.

`O=C(NCCCNc1nc(Nc2cccc(F)c2)ncc1C1CC1)C1CCC1` [Example 23, Cyclobutanecarboxylic acid {3-[5-cyclopropyl-2-(3-fluoro-phenylamino)-pyrimidin-4-ylamino]-propyl}-amide]: the remaining activity at 10 µM at PDK1 (setting [5]) was determined as 10%; on PDK1 (setting [1]), 10%; on DYRK2 (setting [6]), 50%; at DYRK2 (setting [2]) it was 50%; on FGF-R1 (setting [7]) it was 36%; at FGF-R1 (setting [3]), 36%. Moreover, the remaining activity at 10 µM at EPH A2 (setting [8]) and at EPH A2 (setting [4]) was 71% throughout. The “residual kinase activity PDK1” value at PDK1 was determined as 44%. In addition, the remaining activity at 1 µM on PDK1 (setting [1]) worked out at 44%; at DYRK2 (setting [2]) it was 67%; at FGF-R1 (setting [3]), 89%; on EPH A2 (setting [4]), 71%. The “residual kinase activity DYRK2” value at DYRK2 is 67%. Besides, at FGF-R1, the “residual kinase activity FGF-R1” value is recorded as 89%. On EPH A2, the “residual kinase activity EPH A2” value was determined as 71%. The “residual kinase activity IR-HIS” value was determined as 86% in the experiment on IR-HIS (10 μM compound) and 105% in the experiment with IR-HIS (1 μm compound). Moreover, the results for the residual kinase activity with IR-HIS (1 μM compound) and in the experiment on IR-HIS (10 μM compound) were 105% and 86%, respectively.

As to `O=C(NCCCNc1nc(Nc2cccc(N3CCCC3=O)c2)ncc1C1CC1)c1cccs1` [Example 47, Thiophene-2-carboxylic acid (3-{5-cyclopropyl-2-[3-(2-oxo-pyrrolidin-1-yl)-phenylamino]-pyrimidin-4-ylamino}-propyl)-amide. Hydrochloride salt], the remaining activity at 1 µM at PDK1 (setting [1]) was 9%; at DYRK2 (setting [2]) it was 81%; at FGF-R1 (setting [3]), 78%; at EPH A2 (setting [4]), 47%. In addition, the remaining activity at 10 µM on PDK1 (setting [1]) stood at 2%; on DYRK2 (setting [2]), 63%; on FGF-R1 (setting [3]), 31%; at EPH A2 (setting [4]) it was 76%. Besides, the residual kinase activity in the experiment on IR-HIS (1 μM compound) was 105%; in the experiment with IR-HIS (10 μM compound), 85%.

Source of the values: patent US20100056524A1, “Compound” (priority 2008, published 2010).
